# Reference: US8524917B2, “6-substituted indole-3-carboxylic acid amide compounds having sphingosine-1-phosphate (S1P) receptor antagonist biological activity” (Allergan, Inc., priority 2007, dated 2013)
# Read-outs that look alike come from different tables or passages of the source.
# Columns and labels:
# [1] = target: human S1P3 receptor (Homo sapiens (Human), UniProt Q99500); assay: Activation or block of activation of human S1P3 receptor, Ca+2 FLIPR assay; assay type: cell-based; details: for IC50: read-out: S1P3 IC50
# Summary of the method: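 T24 cells stably expressing human S1P3, grown in charcoal-treated FBS, dye-loaded and read on FLIPR for calcium after ligand addition in HBSS/20 mM HEPES (1 s readings for 75 s, then every 10 s for 2.5 min). Agonist or antagonist mode; S1P positive control in 4 mg/ml fatty-acid-free BSA. IC50 by Levenberg–Marquardt regression.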
# [2] = test system: perfused porcine eyes; details: by altering paracellular permeability, IOVS 45, 2263, 2004; cited from earlier work
# [3] = T24 cells stably expressing the human S1P3 receptor, FLIPR Ca+2 response, 0.61 nM to 10,000 nM
# [4] = T24 cells stably expressing the human S1P3 receptor, value in brackets
# Sequence of human S1P3 receptor (Q99500 whole entry): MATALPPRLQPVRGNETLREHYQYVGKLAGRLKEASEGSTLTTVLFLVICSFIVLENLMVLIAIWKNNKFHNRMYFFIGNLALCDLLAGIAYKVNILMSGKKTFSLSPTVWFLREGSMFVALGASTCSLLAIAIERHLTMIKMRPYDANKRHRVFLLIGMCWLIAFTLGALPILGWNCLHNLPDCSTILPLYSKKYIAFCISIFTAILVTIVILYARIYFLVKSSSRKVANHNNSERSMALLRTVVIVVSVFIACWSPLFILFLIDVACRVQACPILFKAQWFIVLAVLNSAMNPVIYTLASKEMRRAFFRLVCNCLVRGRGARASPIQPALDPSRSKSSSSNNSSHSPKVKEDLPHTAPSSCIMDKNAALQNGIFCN
Structure (SMILES),"IC50 [1, 3] [nM]","S1P3 (% inh) [1, 4] [%]",S1P3 (% inh) [1],IC50 [1] [nM],decrease of outflow facility [2] [%]
"CC(C)c1c(C(=O)NCc2cncc(F)c2)c2ccc(OC3CCCC3)cc2n1Cc1cccnc1 [Compound 163, 6-(Cyclopentyloxy)-N-((5-fluoropyridin-3-yl)methyl)-2-isopropyl-1-(pyridin-3-ylmethyl)-1H-indole-3-carboxamide]",55,100,,,
"CC(C)c1c(C(=O)NCc2ccc(F)c(F)c2)c2ccc(OC3CCC3)cc2n1Cc1cccnc1 [Compound 165, 6-Cyclobutoxy-N-(3,4-difluorobenzyl)-2-isopropyl-1-(pyridin-3-ylmethyl)-1H-indole-3-carboxamide]",7,100,,,
"CC(C)Oc1ccc2c(C(=O)NCc3ccc(F)c(F)c3)c(CN3CCCC3)n(Cc3ccccn3)c2c1 [Compound 175, N-(3,4-Difluorobenzyl)-6-isopropoxy-1-(pyridin-2-ylmethyl)-2-(pyrrolidin-1-ylmethyl)-1H-indole-3-carboxamide]",1100,100,,,
"CC(C)Oc1ccc2c(C(=O)NCc3ccc(F)c(F)c3)c(C[N+]3(C)CCCC3)n(Cc3ccccn3)c2c1.[I-] [Compound 176, 1-((3-(3,4-Difluorobenzylcarbamoyl)-6-isopropoxy-1-(pyridin-2-ylmethyl)-1H-indol-2-yl)methyl)-1-methylpyrrolidinium iodide]",7600,98,,,
"CC(C)c1c(C(=O)NCc2ccc(F)c(F)c2)c2ccc(NC3CCCC3)cc2n1Cc1ccccn1 [Compound 183, 6-(Cyclopentylamino)-N-(3,4-difluorobenzyl)-2-isopropyl-1-(pyridin-2-ylmethyl)-1H-indole-3-carboxamide]",152,100,,,
"CC(C)c1c(C(=O)NCc2ccc(F)c(F)c2)c2ccc(NC3=NCCS3)cc2n1Cc1ccccn1 [Compound 184, N-(3,4-Difluorobenzyl)-6-(4,5-dihydrothiazol-2-ylamino)-2-isopropyl-1-(pyridin-2-ylmethyl)-1H-indole-3-carboxamide]",> 8300,80,,,
"CC(C)c1c(C(=O)NCc2ccc(F)c(F)c2)c2ccc(N(C)C3CCCC3)cc2n1Cc1ccccc1 [Compound 189, 1-Benzyl-6-(cyclopentyl(methyl)amino)-N-(3,4-difluorobenzyl)-2-isopropyl-1H-indole-3-carboxamide]",87,100,,,
"CC(C)c1c(C(=O)NCc2ccc(F)c(F)c2)c2ccc(NC3CCC3)cc2n1Cc1ccccc1 [Compound 190, 1-Benzyl-6-(cyclobutylamino)-N-(3,4-difluorobenzyl)-2-isopropyl-1H-indole-3-carboxamide]",,,13 nM (100) %,13,
"CC(C)c1c(C(=O)NCc2cc(F)cc(F)c2)c2ccc(NC3CCCC3)cc2n1Cc1ccccc1 [Compound 191, 1-Benzyl-6-(cyclopentylamino)-N-(3,5-difluorobenzyl)-2-isopropyl-1H-indole-3-carboxamide]",38,99,,,
"CC(C)c1c(C(=O)NCc2ccc(F)cc2)c2ccc(NC3CCCC3)cc2n1Cc1ccccc1 [Compound 192, 1-Benzyl-6-(cyclopentylamino)-N-(4-fluorobenzyl)-2-isopropyl-1H-indole-3-carboxamide]",,,70 nM (100) %,70,
"CC(C)c1c(C(=O)NCc2cncc(F)c2)c2ccc(NC3CCCC3)cc2n1Cc1ccccc1 [Compound 193, 1-Benzyl-6-(cyclopentylamino)-N-((5-fluoropyridin-3-yl)methyl)-2-isopropyl-1H-indole-3-carboxamide]",,,163 nM (100) %,163,
"CC(C)c1c(C(=O)NCc2cc(F)cc(F)c2)c2ccc(NC3CCC3)cc2n1Cc1ccccc1 [Compound 194, 1-Benzyl-6-(cyclobutylamino)-N-(3,5-difluorobenzyl)-2-isopropyl-1H-indole-3-carboxamide]",,,20 nM (100) %,20,
"CC(C)c1c(C(=O)NCc2ccc(F)cc2)c2ccc(NC3CCC3)cc2n1Cc1ccccc1 [Compound 195, 1-Benzyl-6-(cyclobutylamino)-N-(4-fluorobenzyl)-2-isopropyl-1H-indole-3-carboxamide]",51,99,,,
"CC(C)c1c(C(=O)NCc2ccc(F)c(F)c2)c2ccc(NC3CCC3)cc2n1Cc1ccccn1 [Compound 197, 6-(Cyclobutylamino)-N-(3,4-difluorobenzyl)-2-isopropyl-1-(pyridin-2-ylmethyl)-1H-indole-3-carboxamide]",67,100,,,
"[2H]C([2H])([2H])C([2H])(Oc1ccc2c(C(=O)NCc3ccc(F)c(F)c3)c(C(=C)C)n(Cc3ccccn3)c2c1)C([2H])([2H])[2H] [Compound 199, N-(3,4-Difluorobenzyl)-2-isopropenyl-6-isopropoxy-1-(pyridin-2-ylmethyl)-1H-indole-3-carboxamide-d7]",51,100,,,
"CC(C)c1c(C(=O)NCc2ccc(F)c(F)c2)c2ccc(N3CCOCC3)cc2n1Cc1ccccn1 [Compound 207, N-(3,4-Difluorobenzyl)-2-isopropyl-6-morpholino-1-(pyridin-2-ylmethyl)-1H-indole-3-carboxamide]",130,97,,,
"CC(C)c1c(C(=O)NCc2ccc(F)c(F)c2)c2ccc(OC3CCCC3)cc2n1Cc1ncco1 [Compound 211, 6-(Cyclopentyloxy)-N-(3,4-difluorobenzyl)-2-isopropyl-1-(oxazol-2-ylmethyl)-1H-indole-3-carboxamide]",10,100,,,
"CCCOc1ccc2c(C(=O)NCc3ccc(F)c(F)c3)c(C(C)C)n(Cc3ncco3)c2c1 [Compound 212, N-(3,4-Difluorobenzyl)-2-isopropyl-1-(oxazol-2-ylmethyl)-6-propoxy-1H-indole-3-carboxamide]",,,393 nM (100) %,393,
"CC(C)Oc1ccc2c(C(=O)NCc3ccc(F)c(F)c3)c(C(C)C)n(Cc3ncco3)c2c1 [Compound 213, N-(3,4-Difluorobenzyl)-6-isopropoxy-2-isopropyl-1-(oxazol-2-ylmethyl)-1H-indole-3-carboxamide]",189,100,,,
"CC(C)c1c(C(=O)NCc2ccc(F)c(F)c2)c2ccc(Oc3nccs3)cc2n1Cc1ncco1 [Compound 214, N-(3,4-Difluorobenzyl)-2-isopropyl-1-(oxazol-2-ylmethyl)-6-(thiazol-2-yloxy)-1H-indole-3-carboxamide]",53,100,,,
"CC(C)c1c(C(=O)NCc2ccc(F)c(F)c2)c2ccc(Oc3ncc(Br)s3)cc2n1Cc1ncco1 [Compound 215, 6-(5-Bromothiazol-2-yloxy)-N-(3,4-difluorobenzyl)-2-isopropyl-1-(oxazol-2-ylmethyl)-1H-indole-3-carboxamide]",23,99,,,
"Cc1cc(Cn2c(C(C)C)c(C(=O)NCc3ccc(F)c(F)c3)c3ccc(O)cc32)no1 [Compound 218, N-(3,4-Difluorobenzyl)-6-hydroxy-2-isopropyl-1-((5-methylisoxazol-3-yl)methyl)-1H-indole-3-carboxamide]",5400,67,,,
"Cc1cc(Cn2c(C(C)C)c(C(=O)NCc3ccc(F)c(F)c3)c3ccc(OC4CCCC4)cc32)no1 [Compound 219, 6-(Cyclopentyloxy)-N-(3,4-difluorobenzyl)-2-isopropyl-1-((5-methylisoxazol-3-yl)methyl)-1H-indole-3-carboxamide]",38,99,,,
"CCOC(=O)Cn1c(C(C)C)c(C(=O)NCc2ccc(F)c(F)c2)c2ccc(OC3CCCC3)cc21 [Compound 223, Ethyl 2-(6-(Cyclopentyloxy)-3-(3,4-difluorobenzylcarbamoyl)-2-isopropyl-1H-indol-1-yl)acetate]",,,24 nM (100) %,24,
"COC(=O)c1c(C(=O)NCc2ccc(F)c(F)c2)c2ccc(OC(C)C)cc2n1Cc1ccccn1 [Compound 226, Methyl 3-(3,4-Difluorobenzylcarbamoyl)-6-isopropoxy-1-(pyridin-2-ylmethyl)-1H-indole-2-carboxylate]",87,100,,,
"CCCCCCCCCCCCC/C=C/[C@@H](O)[C@@H](N)COP(=O)(O)O [Compound S1P, Sphingosine-1-Phosphate]",,,,,> 30
CC(C)c1c(C(=O)NCc2ccc(F)c(F)c2)c2ccc(OC3CCCO3)cc2n1Cc1ccccn1 (stereo not shown) [drawing 164],9,100,,,
CC(C)c1c(C(=O)NCc2ccc(F)c(F)c2)c2ccc(OC3CCCO3)cc2n1Cc1ccccn1 (stereo not shown) [drawing 169],9,100,,,
